# Assay results: patent US20180311353A1, “TRIPLET-TRIPLET ANNIHILATION-BASED UPCONVERSION” (Children's Medical Center Corporation, priority 2015, published 2018)
# Assays:
# [1] = 530 nm LED, 150 mW cm^−2
# Description: This example illustrates cell binding triggered by TTA-UC. Photo-triggered binding of NPTTA-c[R]GDfK to cells by flow cytometry and confocal microscopy, was studied with micelles in which a hydrophilic dye, Lissamine™ rhodamine B (LRB), was covalently bound to the PLA-PEG copolymer (forming PLA-PEG-LRB; FIG. 16).
# [2] = Photocleavage of c[R]GDfK molecule (400 nm LED, HPLC); format: physicochemical; conditions: PBS
# Procedure: Construction of photo-targeted polymeric micelles. […] The identity of the peaks was further confirmed by mass spectrometry. Approximately 86% of cleavage occurred within 30 s of irradiation at 50 mW cm^−2 (FIG. 2C). At an irradiance as low as 2.3 mW cm^−2, ˜42% of c[R]GDfK was cleaved after 2 min of irradiation.
# FIG. 2A. Photocleavage of c[R]GDfK. […] FIG. 2B. UV-visible absorption and fluorescence emission spectra of c[R]GDfK in PBS (pH 7.4). The excitation wavelength for the fluorescence spectrum was 385 nm. FIG. 2C. Photocleavage rate of c[R]GDfK in PBS, as determined by HPLC (detected at 390 nm), after continuous irradiation with 400 nm LED light at 2.3 mW cm^−2 and 50 mW cm^−2 (data are mean+/−SD; n=4). a.u.=arbitrary units. […]
# Photocleavage of c[R]GDfK molecule. A disposable macro fluorescence cuvette containing 400 microliters of c[R]GDfK PBS solution (50 microgram/mL) was irradiated under an 11-mm LED (400 nm) collimator with a Multi-channel Universal LED controller (Mightex Systems, CA, USA). […] The LED irradiance was measured with a PM100USB Power and Energy Meter (ThorLabs, NJ, USA). At each irradiation time point, 50 microliters of the irradiated solution was analyzed by reverse-phase high-performance liquid chromatography (RP-HPLC) with an Agilent 1260 Infinity LC system and a Poroshell 120 EC-C18 column (4.6×100 mm) (Agilent Technologies, CA, USA). […]
# [3] = Photocleavage of DEACM from NPTTA-c[R]GDfK (530 nm LED, centrifugal filtrate); format: physicochemical; conditions: HPLC of filtrate
# Procedure: Photocleavage of DEACM from NPTTA-c[R]GDfK. One milliliter of NPTTA-c[R]GDfK solution (1 mg mL^−1) was put in a quartz cuvette and irradiated with LED light (530 nm, 150 mW cm^−2). At each irradiation time, the solution was put in an Amicon® Ultra centrifugal filter (50,000 Da cut-off) and centrifuged at 4000 rmp for 15 min. […]
# Photocleavage of DEACM from NPTTA-c[R]GDfK. […] At each irradiation time, the solution was transferred into an Amicon® Ultra centrifugal filter (MWCO: 50,000 Da) and centrifuged at 4000 rmp for 15 min. […]
"photostable under irradiation, time [1]","c[R]GDfK cleaved ([2]; 2.3 mW cm^−2, after 2 min)","cleavage of c[R]GDfK ([2]; 50 mW cm^−2, within 30 s, 50 microgram/mL)",photocleavage of DEACM on 530 nm irradiation [3],Compound
at least 10 min,,,,"CCN(CC)c1ccc2c(-c3ccc(S(=O)(=O)NCCN)cc3S(=O)(=O)O)c3ccc(=[N+](CC)CC)cc-3oc2c1.O=C(O)C(F)(F)F [LRB, Lissamine™ rhodamine B ethylenediamine]"
,~42%,Approximately 86%,did not cleave DEACM from c[R]GDfK,c[R]GDfK
